In patent US20230265098A1, “ALKYNE QUINAZOLINE DERIVATIVES AS INHIBITORS OF ERBB2” (EnLiven Therapeutics, Inc., priority 2020, published 2023):
Read-outs that look alike come from different tables or passages of the source.

Key:
[1] = system: A431 cells; test: Cell viability assay (CellTiter Glo); format: cell-based; settings: Homo sapiens, A-431; 72 hours; 1500 cells per well, 384-well; DMEM + 10% FBS
Method: (§1) Cells were treated with compounds, and cell viability was measured as a metric of kinase inhibition.
(§2) The Ba/F3 cell line is IL-3-dependent mouse cell line derived from the C3H mouse strain. Ba/F3 cell lines were engineered to express human ERBB2 or EGFR kinases, rendering the cells IL-3 independent. The lines were generated via retroviral transduction utilizing a Moloney murine leukemia virus (MMLV) promoter, and constructs are stably integrated into the cell genome.
(§3) Similarly, Ba/F3 cell lines engineered to express EGFR, ERBB2, or ERBB2 mutants were grown, harvested, counted and seeded at 3000 cells per well in 96-well plates for the data sets shown in Tables B3-B4, and seeded at 300 cells per well in 384-well plates for the data set shown in Table B5. A subset of wells contained media only (low control, “LC”).
(§4) Table B2 provides the growth media and number of cells seeded per well for the each cell line.
(§5) Compounds were dissolved in DMSO and serially diluted. Serially-diluted compound or a DMSO only control (high control, “HC”) was added to the plated cells in each well. […] The final proportion of DMSO never exceeded 0.1%.
(§6) Plates were placed in a 37° C., 5% CO2 incubator for 72 hours. Plates were then removed from the incubator and equilibrated for 15 minutes at room temperature. 40 IA of CellTiter Glo reagent (Promega) was added to measure the relative level of metabolically active cells by quantifying intracellular ATP concentrations. Plates were incubated for 30 minutes at room temperature, and luminescence was measured. Percent viability was normalized to a vehicle control only using the following formula: % viability=100×(LumSample−LumLC) (LumHC−LumLC). Graphical curves were fitted using a nonlinear regression model with a sigmoidal dose response.

[2] = system: BT-474 cells; test: Cell viability assay (CellTiter Glo); format: cell-based; settings: Homo sapiens, 72 hours, 2000 cells per well, 384-well, DMEM + 10% FBS
Method: as §1, §2, §3, §4, §5, §6

[3] = system: MDA-MB-175VII cells; test: Cell viability assay (CellTiter Glo); format: cell-based; settings: Homo sapiens, 72 hours, 2000 cells per well, 384-well, RPMI + 10% FBS
Method: as §1, §2, §3, §4, §5, §6

[4] = biological target: T1, phosphorylated ERBB2 (pERBB2) (Homo sapiens, UniProt P04626); test: Detection of phosphorylated ERBB2 (pERBB2) by ELISA in BT-474 cells; format: cell-based; settings: four hours incubation with compound, OD 450 nm
T1 construct: endogenous in cells; host or cells: BT-474
Method: BT-474 cells were seeded into a 96-well at 2.0*10^4 cells/100 μl/well.
Compounds were dissolved and serially diluted in DMSO. The compounds were then were added, mixed, and incubated for four hours at 37° C., 5% CO2. Compounds were added using four-fold dilutions at final concentrations ranging from 10 μM to 0.01 nM.
Following the four hour incubation with compounds, cell lysates were prepared. Plates were centrifuged for 5 min at 3000 RPM, and supernatant was removed from each well. Cells were washed 3 times by resuspension in 150 μl PBS, followed by centrifugation and removal of the supernatant, as above. […] Cells were incubated with lysis buffer for 1 hour at 4° C., and then stored at −80° C.
Enzyme-linked immunosorbent assays (ELISA) were performed to measure phosphorylated ERBB2 levels. […] The next day, plates were washed with PBS+0.05% Tween20 (PBST). 150 μl of 5% BSA blocking solution was added for 1 hour at room temperature, with shaking. Plates were washed with PBST. Cell lysates were thawed and 100 μl of lysate was added to the ELISA plate. The plates were incubated for 2 hours at room temperature, with shaking. […] Plates were incubated for 1 hour at room temperature, with shaking. Plates were then washed with PBST, and 100 μl TMB substrate solution (R&D Systems, cat #DY999) was added. Plate were incubated in the dark for 20 minutes at room temperature. 50 μl of Stop solution (R&D Systems, cat #DY994) (50 μl) was added to each well and mixed.
Optical density at 450 nm was read on an EnSpire plate reader (Perkin Elmer). The remaining kinase activity by calculated using the following formula: % Relative activity=100×(A450sample−A450LC)/(A450HC−A450LC). The low and high control values (“LC” and “HC”) were generated from lysate from wells without cells or with cells treated with 0.1% DMSO, respectively.

[5] = biological target: T2, Ba/F3 ERBB2-P780_Y781insGSP (Homo sapiens, UniProt P04626, DUP778-780, cells depend on it); test: Cell viability assay (CellTiter Glo); format: cell-based, mouse; settings: 72 hours; 3000 cells per well, 96-well plates; read-out: Cell viability IC50, nM, Ba/F3 ERBB2-P780_Y781insGSP
T2 construct: Ba/F3 cell lines were engineered to express human ERBB2 or EGFR kinases, rendering the cells IL-3 independent
Method: as §1, §2, §3, §4, §5
Plates were placed in a 37° C., 5% CO2 incubator for 72 hours. Plates were then removed from the incubator and equilibrated for 15 minutes at room temperature. 40 IA of CellTiter Glo reagent (Promega) was added to measure the relative level of metabolically active cells by quantifying intracellular ATP concentrations. Plates were incubated for 30 minutes at room temperature, and luminescence was measured. […] Graphical curves were fitted using a nonlinear regression model with a sigmoidal dose response.

[6] = biological target: T3, Ba/F3 ERBB2-V777_G778insGC (Homo sapiens, UniProt P04626, INS778CG, cells depend on it); test: Cell viability assay (CellTiter Glo); format: cell-based, mouse; settings: 72 hours; 3000 cells per well, 96-well plates; read-out: Cell viability IC50, nM, Ba/F3 ERBB2-V777_G778insGC
T3 construct: Ba/F3 cell lines were engineered to express human ERBB2 or EGFR kinases, rendering the cells IL-3 independent
Method: as §1, §2, §3, §4, §5, §6

[7] = biological target: T4, Ba/F3 ERBB2-V777L (Homo sapiens, UniProt P04626, V777L, cells depend on it); test: Cell viability assay (CellTiter Glo); format: cell-based, mouse; settings: 72 hours; 3000 cells per well, 96-well plates; read-out: Cell viability IC50, nM, Ba/F3 ERBB2-V777L
T4 construct: Ba/F3 cell lines were engineered to express human ERBB2 or EGFR kinases, rendering the cells IL-3 independent
Method: as §1, §2, §3, §4, §5, §6

[8] = biological target: T5, Ba/F3 ERBB2-L755S (Homo sapiens, UniProt P04626, L755S, cells depend on it); test: Cell viability assay (CellTiter Glo); format: cell-based, mouse; settings: 72 hours; 3000 cells per well, 96-well plates; read-out: Cell viability IC50, nM, Ba/F3 ERBB2-L755S
T5 construct: Ba/F3 cell lines were engineered to express human ERBB2 or EGFR kinases, rendering the cells IL-3 independent
Method: as §1, §2, §3, §4, §5, §6

[9] = biological target: T6, Ba/F3 ERBB2-L869R (Homo sapiens, UniProt P04626, L869R, cells depend on it); test: Cell viability assay (CellTiter Glo); format: cell-based, mouse; settings: 72 hours; 3000 cells per well, 96-well plates; read-out: Cell viability IC50, nM, Ba/F3 ERBB2-L869R
T6 construct: Ba/F3 cell lines were engineered to express human ERBB2 or EGFR kinases, rendering the cells IL-3 independent
Method: as §1, §2, §3, §4, §5, §6

[10] = biological target: T7, Ba/F3 ERBB2 A775_G776insYVMA (Homo sapiens, UniProt P04626, DUP772-775, cells depend on it); test: Cell viability assay (CellTiter Glo); format: cell-based, mouse; settings: 72 hours
T7 construct: Ba/F3 cell lines were engineered to express human ERBB2 or EGFR kinases, rendering the cells IL-3 independent
Method: as §1, §2, §3, §4, §5, §6

[11] = biological target: T8, Ba/F3 ERBB2-T798M (Homo sapiens, UniProt P04626, T798M, cells depend on it); test: Cell viability assay (CellTiter Glo); format: cell-based, mouse; settings: 72 hours; 3000 cells per well, 96-well plates; read-out: Cell viability IC50, nM, Ba/F3 ERBB2-T798M
T8 construct: Ba/F3 cell lines were engineered to express human ERBB2 or EGFR kinases, rendering the cells IL-3 independent
Method: as §1, §2, §3, §4, §5, §6

[12] = biological target: T9, Ba/F3 ERBB2-G776VC (Homo sapiens, UniProt P04626, DELINS776-776VC, cells depend on it); test: Cell viability assay (CellTiter Glo); format: cell-based, mouse; settings: 72 hours; 3000 cells per well, 96-well plates; read-out: Cell viability IC50, nM, Ba/F3 ERBB2-G776VC
T9 construct: Ba/F3 cell lines were engineered to express human ERBB2 or EGFR kinases, rendering the cells IL-3 independent
Method: as §1, §2, §3, §4, §5, §6

[13] = biological target: T10, Ba/F3 ERBB2 wt (Homo sapiens, UniProt P04626); test: Cell viability assay (CellTiter Glo); format: cell-based, mouse; settings: 72 hours; 3000 cells per well, 96-well plates; read-out: Cell viability IC50, nM, Ba/F3 ERBB2 wt
T10 construct: Ba/F3 cell lines were engineered to express human ERBB2 or EGFR kinases, rendering the cells IL-3 independent
Method: as §1, §2, §3, §4, §5, §6

[14] = biological target: T11, phosphorylated EGFR (pEGFR) (Homo sapiens, UniProt P00533); test: Detection of phosphorylated EGFR (pEGFR) in EGF-stimulated A431 cells (AlphaLISA); format: cell-based; settings: A431 cells (10% FBS), 4 hours with compound, then EGF 30 ng/mL for 10 minutes
T11 construct: endogenous in cells; host or cells: A431
Method: Enzyme-linked immunosorbent assays (ELISA) were performed to measure phosphorylated EGFR levels using A431 cells (10% FBS). A431 (1.0*10^4 cells/40 μl/well) cells were seeded in 384 well. Compounds were dissolved in DMSO, serially diluted in DMSO and then were added, mixed, and incubated for 4 hours at 37° C., 5% CO2. Following the 4-hours incubation, cells were stimulated for 10 minutes with EGF (Invitrogen, cat #PHG0311) at a final concentration of 30 ng/mL in the incubator. The media was aspirated and cells were lysed in 10 μL lysis buffer with protease and phosphatase inhibitors (PerkinElmer, cat #ALSU-PEGFR-A50K). The plates were placed on a shaker for 5 minutes and then incubated for 30 min at 4° C. for complete lysis. The lysate was transferred to an Optiplate (Perkin Elmer, cat #6007290).
Acceptor mix (PerkinElmer, cat #ALSU-PEGFR-A50K) was prepared just before use and 5 μL was dispensed to all the wells, followed by a 1.5-2 h incubation at room temperature in dark. The donor mix (PerkinElmer, cat #ALSU-PEGFR-A50K) was prepared under low light conditions prior to use and […] of donor mix was added to all the wells under subdued lighting or green filters. The plates were placed on a shaker for 5 min, sealed, and incubated overnight at room temperature in dark. Plates were read on the Envision (PerkinElmer) using standard AlphaLISA settings.
The percentage of inhibition on EGFR phosphorylation was calculated following equation: % Inhibition=100×(LumHC−LumSample)/(LumHC−LumLC). The low and high controls (LC/HC) are generated from lysate from wells with cells treated with DMSO or […] Staurosporine (BioAustralis, cat #BIA-S1086), […]. IC50 values were calculated by fitting the Curve using XLfit (v5.3.1.3), equation 201: Y=Bottom+(Top−Bottom)/(1+10^((LogIC50−X)*HillSlope)).

[15] = 3000 cells per well, 96-well plates (Tables B3-B4), read-out: Cell viability IC50, nM, Ba/F3 ERBB2 A775_G776insYVMA
[16] = 300 cells per well, 384-well plates (Table B5), read-out: Cell Line: Ba/F3 ERBB2 A775 G776ins YVMA IC50

T10 sequence (P04626 whole entry, change not shown): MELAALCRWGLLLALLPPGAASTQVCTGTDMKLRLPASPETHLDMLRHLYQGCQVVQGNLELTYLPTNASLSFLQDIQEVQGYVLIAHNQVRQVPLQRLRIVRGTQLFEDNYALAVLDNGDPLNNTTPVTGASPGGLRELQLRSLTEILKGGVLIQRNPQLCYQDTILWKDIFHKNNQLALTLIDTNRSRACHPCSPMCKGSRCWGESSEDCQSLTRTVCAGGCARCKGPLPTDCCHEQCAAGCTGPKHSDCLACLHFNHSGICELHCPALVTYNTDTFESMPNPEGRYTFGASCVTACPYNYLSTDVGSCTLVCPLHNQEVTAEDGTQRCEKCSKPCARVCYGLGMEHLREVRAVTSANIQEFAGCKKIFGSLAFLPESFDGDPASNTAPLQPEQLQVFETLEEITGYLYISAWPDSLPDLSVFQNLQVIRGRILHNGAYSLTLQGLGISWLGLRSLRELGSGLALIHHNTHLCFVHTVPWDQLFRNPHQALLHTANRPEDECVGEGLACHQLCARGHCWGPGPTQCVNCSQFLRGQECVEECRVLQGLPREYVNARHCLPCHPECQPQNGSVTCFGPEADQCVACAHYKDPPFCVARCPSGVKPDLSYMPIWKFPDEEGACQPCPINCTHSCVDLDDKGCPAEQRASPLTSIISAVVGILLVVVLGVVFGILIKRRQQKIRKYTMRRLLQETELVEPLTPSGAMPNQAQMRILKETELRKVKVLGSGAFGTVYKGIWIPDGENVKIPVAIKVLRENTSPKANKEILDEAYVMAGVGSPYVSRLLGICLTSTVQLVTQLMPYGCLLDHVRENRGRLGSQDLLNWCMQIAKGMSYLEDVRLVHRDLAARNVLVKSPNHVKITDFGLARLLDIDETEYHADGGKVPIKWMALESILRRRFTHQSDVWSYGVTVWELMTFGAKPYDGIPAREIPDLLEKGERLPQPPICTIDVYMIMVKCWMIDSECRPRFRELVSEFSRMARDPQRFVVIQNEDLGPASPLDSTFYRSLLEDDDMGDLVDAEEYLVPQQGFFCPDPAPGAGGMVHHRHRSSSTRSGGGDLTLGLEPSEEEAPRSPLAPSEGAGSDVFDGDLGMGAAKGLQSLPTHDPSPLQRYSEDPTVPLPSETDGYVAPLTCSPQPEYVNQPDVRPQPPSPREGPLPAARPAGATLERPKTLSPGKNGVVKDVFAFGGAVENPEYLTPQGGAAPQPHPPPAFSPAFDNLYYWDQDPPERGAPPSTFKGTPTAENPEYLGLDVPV
T11 sequence (P00533 25-1210): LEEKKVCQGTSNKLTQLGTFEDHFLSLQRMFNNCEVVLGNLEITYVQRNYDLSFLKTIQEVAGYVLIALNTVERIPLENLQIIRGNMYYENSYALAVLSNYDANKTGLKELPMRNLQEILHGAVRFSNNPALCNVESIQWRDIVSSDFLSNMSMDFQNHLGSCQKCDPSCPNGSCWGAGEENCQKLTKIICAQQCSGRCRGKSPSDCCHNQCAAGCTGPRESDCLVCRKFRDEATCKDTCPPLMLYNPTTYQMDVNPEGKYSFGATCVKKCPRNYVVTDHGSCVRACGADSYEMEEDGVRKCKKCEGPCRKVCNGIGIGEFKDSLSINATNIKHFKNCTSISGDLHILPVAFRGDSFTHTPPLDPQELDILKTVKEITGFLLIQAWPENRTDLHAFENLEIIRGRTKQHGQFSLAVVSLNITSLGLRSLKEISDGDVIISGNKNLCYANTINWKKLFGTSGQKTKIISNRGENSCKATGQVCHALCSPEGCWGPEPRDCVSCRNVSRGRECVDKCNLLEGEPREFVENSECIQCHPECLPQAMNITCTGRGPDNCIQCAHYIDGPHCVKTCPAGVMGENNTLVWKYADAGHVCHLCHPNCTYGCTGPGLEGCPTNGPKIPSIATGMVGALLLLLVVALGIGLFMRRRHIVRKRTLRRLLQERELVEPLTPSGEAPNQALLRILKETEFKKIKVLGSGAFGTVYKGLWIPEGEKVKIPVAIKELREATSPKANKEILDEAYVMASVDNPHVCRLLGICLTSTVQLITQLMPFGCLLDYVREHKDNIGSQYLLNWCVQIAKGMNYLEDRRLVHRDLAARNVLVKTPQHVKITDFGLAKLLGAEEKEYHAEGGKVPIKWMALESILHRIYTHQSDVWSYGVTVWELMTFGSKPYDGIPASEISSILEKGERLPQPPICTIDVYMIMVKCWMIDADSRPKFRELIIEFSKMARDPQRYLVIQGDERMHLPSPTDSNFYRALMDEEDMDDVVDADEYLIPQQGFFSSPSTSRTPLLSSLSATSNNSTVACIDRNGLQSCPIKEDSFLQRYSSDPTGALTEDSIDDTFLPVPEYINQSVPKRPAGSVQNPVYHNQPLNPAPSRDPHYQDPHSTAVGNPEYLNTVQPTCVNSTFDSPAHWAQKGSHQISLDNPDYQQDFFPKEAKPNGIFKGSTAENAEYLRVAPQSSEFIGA
T2 sequence (P04626 with tags, fused parts or gaps DUP778-780): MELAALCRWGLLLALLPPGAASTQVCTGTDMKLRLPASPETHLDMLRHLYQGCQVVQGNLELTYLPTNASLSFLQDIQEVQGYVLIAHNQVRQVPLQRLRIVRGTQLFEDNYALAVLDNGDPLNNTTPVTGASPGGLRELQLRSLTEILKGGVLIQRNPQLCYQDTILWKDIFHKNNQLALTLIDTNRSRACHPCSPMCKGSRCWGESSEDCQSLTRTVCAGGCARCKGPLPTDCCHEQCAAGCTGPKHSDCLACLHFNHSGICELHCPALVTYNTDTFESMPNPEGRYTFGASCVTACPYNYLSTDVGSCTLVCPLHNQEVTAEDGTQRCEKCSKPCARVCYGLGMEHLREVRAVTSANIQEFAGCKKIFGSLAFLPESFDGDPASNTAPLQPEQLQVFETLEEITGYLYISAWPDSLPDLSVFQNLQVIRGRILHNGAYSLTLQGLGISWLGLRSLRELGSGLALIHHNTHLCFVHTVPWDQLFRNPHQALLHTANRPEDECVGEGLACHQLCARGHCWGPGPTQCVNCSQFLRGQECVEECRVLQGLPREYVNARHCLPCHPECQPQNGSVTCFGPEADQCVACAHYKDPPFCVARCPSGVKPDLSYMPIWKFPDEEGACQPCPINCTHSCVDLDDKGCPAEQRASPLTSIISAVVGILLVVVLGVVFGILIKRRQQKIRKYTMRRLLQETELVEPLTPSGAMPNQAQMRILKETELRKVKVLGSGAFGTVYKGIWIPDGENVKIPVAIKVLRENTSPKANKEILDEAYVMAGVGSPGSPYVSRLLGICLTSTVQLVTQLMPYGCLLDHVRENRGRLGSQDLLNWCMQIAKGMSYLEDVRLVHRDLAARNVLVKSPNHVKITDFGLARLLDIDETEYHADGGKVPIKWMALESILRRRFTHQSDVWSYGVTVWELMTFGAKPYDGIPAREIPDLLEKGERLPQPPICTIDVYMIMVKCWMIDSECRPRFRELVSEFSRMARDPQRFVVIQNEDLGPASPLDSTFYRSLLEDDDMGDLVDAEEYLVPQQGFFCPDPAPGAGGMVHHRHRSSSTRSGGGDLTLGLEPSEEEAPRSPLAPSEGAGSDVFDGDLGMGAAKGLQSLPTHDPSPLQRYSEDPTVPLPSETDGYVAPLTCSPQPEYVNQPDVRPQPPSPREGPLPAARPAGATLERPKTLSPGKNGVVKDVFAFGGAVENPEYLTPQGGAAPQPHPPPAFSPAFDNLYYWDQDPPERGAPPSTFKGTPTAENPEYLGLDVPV
T7 sequence (P04626 with tags, fused parts or gaps DUP772-775): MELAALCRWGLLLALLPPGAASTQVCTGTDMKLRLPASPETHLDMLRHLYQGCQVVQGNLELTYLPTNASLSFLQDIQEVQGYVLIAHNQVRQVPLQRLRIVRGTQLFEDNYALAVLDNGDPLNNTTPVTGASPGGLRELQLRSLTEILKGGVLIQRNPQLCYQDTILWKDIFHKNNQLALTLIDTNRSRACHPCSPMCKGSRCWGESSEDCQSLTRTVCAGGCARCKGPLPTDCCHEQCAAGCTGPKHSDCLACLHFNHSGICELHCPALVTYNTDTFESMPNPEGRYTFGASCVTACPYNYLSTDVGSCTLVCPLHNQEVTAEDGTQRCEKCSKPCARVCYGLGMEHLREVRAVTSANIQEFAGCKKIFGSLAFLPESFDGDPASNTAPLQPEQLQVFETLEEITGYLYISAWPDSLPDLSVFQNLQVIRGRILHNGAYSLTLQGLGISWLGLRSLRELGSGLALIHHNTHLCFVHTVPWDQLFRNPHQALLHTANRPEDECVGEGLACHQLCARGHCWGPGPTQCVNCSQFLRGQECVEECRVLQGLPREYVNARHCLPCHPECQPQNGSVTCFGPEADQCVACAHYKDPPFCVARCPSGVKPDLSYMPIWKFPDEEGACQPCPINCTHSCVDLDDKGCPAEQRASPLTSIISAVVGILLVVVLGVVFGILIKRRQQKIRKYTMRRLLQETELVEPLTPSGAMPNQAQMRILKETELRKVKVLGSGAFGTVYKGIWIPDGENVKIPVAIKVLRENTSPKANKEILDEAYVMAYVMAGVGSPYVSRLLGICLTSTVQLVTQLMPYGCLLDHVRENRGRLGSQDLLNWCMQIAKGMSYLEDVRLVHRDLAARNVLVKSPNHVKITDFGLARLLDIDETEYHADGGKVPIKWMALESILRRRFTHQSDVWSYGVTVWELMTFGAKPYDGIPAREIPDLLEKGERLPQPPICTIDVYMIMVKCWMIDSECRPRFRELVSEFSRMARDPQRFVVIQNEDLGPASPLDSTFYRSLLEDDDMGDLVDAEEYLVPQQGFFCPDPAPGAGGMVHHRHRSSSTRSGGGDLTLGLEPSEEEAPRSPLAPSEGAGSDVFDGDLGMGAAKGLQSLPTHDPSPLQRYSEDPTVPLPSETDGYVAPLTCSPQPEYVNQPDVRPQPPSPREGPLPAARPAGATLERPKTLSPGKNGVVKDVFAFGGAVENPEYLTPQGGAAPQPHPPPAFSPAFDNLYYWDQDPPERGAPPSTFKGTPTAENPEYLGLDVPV

Structure (SMILES) | IC50 [1] [nM] | IC50 [2] [nM] | IC50 [3] [nM] | IC50 [4] [nM] | GI50 [5] [nM] | GI50 [6] [nM] | GI50 [7] [nM] | GI50 [8] [nM] | GI50 [9] [nM] | GI50 [10, 15] [nM] | GI50 [11] [nM] | GI50 [12] [nM] | GI50 [13] [nM] | IC50 [14] [nM] | GI50 [10, 16] [nM]
CC#CC(=O)Nc1ccc2ncnc(Nc3ccc(Cc4ccn5ncnc5c4)cc3)c2c1 [Compound 14, N-[4-[(4-[[1,2,4]triazolo[1,5-a]pyridin-7-ylmethyl]phenyl)amino]quinazolin-6-yl]but-2-ynamide] | 3550 | 9.6 | 30.4 | 14.3 | 3.8 | 4 | 1.5 | 25 | 9.5 | 36 | 482 | 13 | 5.1 | – | –
Cc1cc(Nc2ncnc3cc(OCCO)c(NC(=O)C#CC4CC4)cc23)ccc1Oc1ccn2ncnc2c1 [Compound 168, 3-cyclopropyl-N-[7-(2-hydroxyethoxy)-4-[(3-methyl-4-[[1,2,4]triazolo[1,5-a]pyridin-7-yloxy]phenyl)amino]quinazolin-6-yl]prop-2-ynamide] | – | 2.17 | – | 17 | – | – | – | – | – | – | – | – | – | 70.9 | –
CC#CC(=O)Nc1ccc2ncnc(Nc3ccc(Oc4ccn(C)c(=O)c4)c(C)c3)c2c1 [Compound 3, N-[4-([3-methyl-4-[(1-methyl-2-oxopyridin-4-yl)oxy]phenyl]amino)quinazolin-6-yl]but-2-ynamide] | 4440 | 13.5 | 43.3 | 152 | 7.1 | – | – | – | – | 8.1 | – | 30 | 18 | – | –
CC#CC(=O)Nc1ccc2ncnc(Nc3ccc(Oc4ccc(C)nc4)c(C)c3)c2c1 [Compound 5, N-[4-([3-methyl-4-[(6-methylpyridin-3-yl)oxy]phenyl]amino)quinazolin-6-yl]but-2-ynamide] | – | – | – | – | 1.1 | 1.3 | 1.1 | 6 | 2.3 | 8.3 | 44 | 3.8 | 2.3 | – | –
CC#CC(=O)Nc1cc2c(Nc3ccc(Oc4ccn5ncnc5c4)c(F)c3)ncnc2cc1OCCN(C)C [Compound 198, N-(4-((4-([1,2,4]triazolo[1,5-a]pyridin-7-yloxy)-3-fluorophenyl)amino)-7-(2-(dimethylamino)ethoxy)quinazolin-6-yl)but-2-ynamide] | – | – | – | 6.23 | – | – | – | – | – | – | – | – | – | 508 | 11.5
CC#CC(=O)Nc1ccc2ncnc(Nc3ccc(Oc4ccc5nccnc5c4)c(C)c3)c2c1 [Compound 211, N-(4-{[3-methyl-4-(quinoxalin-6-yloxy)phenyl]amino}quinazolin-6-yl)but-2-ynamide] | – | – | – | 36.6 | – | – | – | – | – | – | – | – | – | 101 | 3.2
